Where two headings read alike, the source gives them in different places.
Legend:
[1] = test system: DHPS; conditions: ref 35; read-out: IC50; cited from earlier work
[2] = target: T1, DHPS (Homo sapiens, UniProt P49366); test: Hyp'Assay: cell-free eIF5A hypusination in 96-well plates (recombinant eIF5A, DHPS, DOHH; anti-hypusine antibody Hpu24), substance present in the DHPS step; type: biochemical; conditions: for concentration from which inhibition of hypusination was detectable / hypusination signal, Mean (quantification from Figure 5A): 5 μM spermidine; for hypusination signal, Mean (quantification from Figure 5A): control 98,5
T1 construct: host or cells: E. coli BL21 (DE3)
T1 sequence (P49366 1-369): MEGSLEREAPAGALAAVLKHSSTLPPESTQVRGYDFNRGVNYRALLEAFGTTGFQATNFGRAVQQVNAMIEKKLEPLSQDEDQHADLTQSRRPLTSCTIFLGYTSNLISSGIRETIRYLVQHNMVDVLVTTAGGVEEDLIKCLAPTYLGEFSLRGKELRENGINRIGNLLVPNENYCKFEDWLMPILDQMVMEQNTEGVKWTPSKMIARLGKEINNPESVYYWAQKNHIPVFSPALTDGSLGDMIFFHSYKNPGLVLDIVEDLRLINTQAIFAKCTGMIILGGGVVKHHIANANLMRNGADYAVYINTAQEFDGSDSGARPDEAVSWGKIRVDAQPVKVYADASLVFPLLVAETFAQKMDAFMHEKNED
Protocol: The principle of the Hyp’Assay (Fig 2A) is to perform eIF5A hypusination reaction in 96-well plates, allow eIF5A to adsorb to the plate, incubate with an anti-hypusine antibody and a secondary antibody conjugated to HRP and reveal hypusination using TMB as a substrate.
(§1) […] Then 10 μL containing 1 μg of DOHH with 10 μM Fe^2+ (H8FeN2O8S2^. 6H2O) were added. After 1 h proteins were analyzed by Western Blot using antibodies toward DHPS, DOHH, Hypusine, and eIF5A.
(§2) The cell-free reaction described in 4.4 is performed in triplicates in a 96-wells plate (MaxiSorp, ThermoFisher) in the presence of 3 μg of eIF5A, 2 μg of DHPS, and 2 μg of DOHH by well. The reaction product, hypusinated eIF5A, is adsorbed onto the plate overnight at 4°C. The plate is washed (100 μL/well) thrice with PBS-T (PBS– 0.05% Tween20), then saturated with 1% non-fat dry milk in PBS-T for 2 h at room temperature. The plate is washed thrice with PBS-T and incubated overnight at 4°C with the anti-hypusine antibody (1:2000 in saturation buffer, 50 μL/well). The next day and after 5 washes with PBS-T, HRP-coupled anti-rabbit secondary antibody diluted 1:5000 in saturation buffer (50 μL/well) is added for 2 h at room temperature.

[3] = test system: eIF5A hypusination in MCF7 cells; test: eIF5A hypusination in intact MCF7 cells, Western blot; type: cell-based, human; conditions: 40 μM, 24 h, Ctrl 100, 4 experiments
Protocol: We tested the ability of the GC7 analogs to inhibit hypusination in intact cells. MCF-7 cells (Fig 5B), a classical model of breast cancer cell line, and HT29 cells (Fig 5C), a cell model of colorectal cancer, were treated with 40 μM of GC7, 1, 2, 3, and 4 for 24h. Cells were lysed and analyzed by Western blot. As observed, none of the molecules modified eIF5A expression. […] GC7 analogs inhibited hypusination from 35 to 55%.
The human breast cancer cell line MCF7 (HTB-22 ATCC) and colorectal adenocarcinoma HT29 (HTB-38 ATCC) were cultured in DMEM (Gibco) supplemented with 10% FBS (Dutscher), 10 U/mL penicillin, and […] streptomycin. 1 mM of aminoguanidine was added to the medium to inhibit the degradation of GC7 and polyamines by amine oxidase from the serum and the production of reactive oxygen species. Cells were maintained at 37°C, 5% CO2 in a humid atmosphere.
After treatment, cells were washed with ice-cold PBS and lysed in RIPA Buffer (50 mM Tris pH 7.5, 150 mM NaCl, 0.1% SDS, 0.5% Na Deoxycholate, 5 mM NaF, 2.5 mM Na4P2O7, 1% NP4O) containing a protease inhibitor cocktail (complete Roche). 10 μg of proteins were separated by SDS PAGE and transferred to a PVDF membrane (Immobilon-P Millipore). The membranes were probed with the appropriate primary antibody that was detected by horseradish peroxidase-conjugated secondary antibody (Jackson Immunoresearch) and visualized by chemiluminescence (ECL Amersham RPN 3244) using a Fuji LAS-4000 imager. ImageJ® software was used to quantify band intensity and the ratios of proteins of interest were normalized to a loading control. Full-length Western blots are provided in the supplementary data (S19, S20 Figs).

[4] = target: T2, DOHH (Homo sapiens, UniProt Q9BU89); test: Hyp'Assay, substance added after the deoxyhypusination reaction (DOHH step); type: biochemical; conditions: control 100,0
T2 construct: pelB leader (N); host or cells: E. coli BL21 (DE3)
T2 sequence (Q9BU89 1-302): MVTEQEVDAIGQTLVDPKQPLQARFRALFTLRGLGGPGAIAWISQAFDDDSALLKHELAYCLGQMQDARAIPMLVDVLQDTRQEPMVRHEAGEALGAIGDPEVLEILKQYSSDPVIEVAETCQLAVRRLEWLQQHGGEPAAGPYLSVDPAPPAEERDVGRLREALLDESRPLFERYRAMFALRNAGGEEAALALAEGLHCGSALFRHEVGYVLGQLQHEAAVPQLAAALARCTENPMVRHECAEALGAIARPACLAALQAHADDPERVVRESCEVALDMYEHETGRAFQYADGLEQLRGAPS
Protocol: We then tested the ability of DOHH inhibitors to inhibit eIF5A hypusination using the Hyp’Assay. During the Hyp’Assay, DOHH inhibitors were added after the deoxyhypusination reaction.
To address this issue, we compared the ability of GC7 to inhibit DHPS or DOHH by adding GC7 during the first step of the Hyp’Assay; when DHPS mediates the deoxyhypusination reaction (Fig 2A), or only during the second step, when DOHH hydroxylate deoxyhypusinated eIF5A. […] When finding new hypusination inhibitors adding them during the first or the second step of the Hyp’Assay will allow us to determine if the inhibition affects DHPS or DOHH. Another way to discriminate between DHPS or DOHH inhibitors would be to use Hpu98, an antibody that recognized both hypusinated and deoxyhypusinated eIF5A, instead of Hpu24, which is specific for hypusinated eIF5A [18]. […] We performed a new Hyp’Assay by omitting DOHH in the reaction mix and using the Hpu98 antibody. First, we performed a dose response experiment with spermidine at pH: 8.0 and 9.0 (Fig 3E). […] We also tested the ability of GC7 (Fig 3F) and CPX or EDTA (Fig 3G) to inhibit DHPS.
as §1, §2

[5] = target: T1, DHPS; test: Hyp'Assay without DOHH: deoxyhypusination of eIF5A revealed with Hpu98 antibody; type: biochemical
Source text: To address this issue, we compared the ability of GC7 to inhibit DHPS or DOHH by adding GC7 during the first step of the Hyp’Assay; when DHPS mediates the deoxyhypusination reaction (Fig 2A), or only during the second step, when DOHH hydroxylate deoxyhypusinated eIF5A. […] This confirms the specificity of GC7 towards DHPS. When finding new hypusination inhibitors adding them during the first or the second step of the Hyp’Assay will allow us to determine if the inhibition affects DHPS or DOHH. Another way to discriminate between DHPS or DOHH inhibitors would be to use Hpu98, an antibody that recognized both hypusinated and deoxyhypusinated eIF5A, instead of Hpu24, which is specific for hypusinated eIF5A [18]. […] We performed a new Hyp’Assay by omitting DOHH in the reaction mix and using the Hpu98 antibody. First, we performed a dose response experiment with spermidine at pH: 8.0 and 9.0 (Fig 3E). The Hyp’Assay allows the detection of deoxyhypusinated eIF5A in a spermidine-dependent manner. Under these conditions, deoxyhypusination was equally efficient at both pH tested. […] We also tested the ability of GC7 (Fig 3F) and CPX or EDTA (Fig 3G) to inhibit DHPS. […] This provided us with another method to distinguish between DHPS and DOHH inhibitors.
as §2

[6] = test system: human DHPS; conditions: read-out: Km of human DHPS for spermidine, cited from earlier work
[7] = concentration 1 (no unit on page; Fig 5A 0 to 1 mM)
[8] = concentration 10 (no unit on page; Fig 5A 0 to 1 mM)
[9] = concentration 100 (no unit on page; Fig 5A 0 to 1 mM)
[10] = concentration 1000 (no unit on page; Fig 5A 0 to 1 mM)

In the case of `COc1ccccc1Oc1c(Cl)nc(-c2ccc(I)cc2)nc1Cl` [GL-1, 4,6-dichloro-2-(4-iodophenyl)-5-(2-methoxyphenoxy)pyrimidine], the IC50 [1] is given as 0.21 µM.
In the case of `N=C(N)NCCCCCCCO` [compound 3, 7-hydroxyheptylguanidine], the “concentration from which inhibition of hypusination was detectable” value [2] is reported as 1 µM, the “hypusination signal, Mean (quantification from Figure 5A)” value [2, 7] is reported as 75,7 and the “hypusination signal, Mean (quantification from Figure 5A)” value [2, 8] is reported as 65,6. The “hypusination signal, Mean (quantification from Figure 5A)” value [2, 9] was 63,6, the “hypusination signal, Mean (quantification from Figure 5A)” value [2, 10] was 58,2 and the “hypusinated eIF5A, Western blot quantification, Mean (Figure 5B)” value [3] was 50.5.
For `N=C(N)NCCCCCCCCO` [compound 4, 8-hydroxyoctylguanidine], the “concentration from which inhibition of hypusination was detectable” value [2] was 100 µM, the “hypusination signal, Mean (quantification from Figure 5A)” value [2, 7] was 109,4 and the “hypusination signal, Mean (quantification from Figure 5A)” value [2, 8] was 86,9. The “hypusination signal, Mean (quantification from Figure 5A)” value [2, 9] was 67,2, the “hypusination signal, Mean (quantification from Figure 5A)” value [2, 10] was 64,0 and the “hypusinated eIF5A, Western blot quantification, Mean (Figure 5B)” value [3] was 64.75.
In the case of `NCCCCNCCCN` [spermidine], the EC50 [2] is reported as 5 µM, the “hypusination signal with the substance as substrate, Mean (quantification from Figure S3)” value (from here on “hypusination signal with the substance”) ([2]; substrate concentration 0,01 (mM)) is reported as 1,46 and the “hypusination signal with the substance” value ([2]; substrate concentration 0,1 (mM)) is reported as 31,22. For the same compound, the “hypusination signal with the substance” value ([2]; substrate concentration 0,0001 (mM)) was -0,19, the “hypusination signal with the substance” value ([2]; substrate concentration 0,001 (mM)) was -0,21 and the “hypusination signal with the substance” value ([2]; substrate concentration 1 (mM)) was 68,32. The “hypusination signal with the substance” value ([2]; substrate concentration 10 (mM)) was 100,00, the “hypusination signal with the substance” value ([2]; substrate concentration 100 (mM)) was 86,96 and the “hypusination signal with the substance” value ([2]; substrate concentration 1000 (mM)) was 66,59. For the same compound, the “hypusination signal, Mean (quantification from Figure 3C)” value ([4]; concentration 1 (no unit on page; Fig 3C dose-response 0 to 100 μM)) was 84,83, the “hypusination signal, Mean (quantification from Figure 3C)” value ([4]; concentration 10 (no unit on page; Fig 3C dose-response 0 to 100 μM)) was 82,59 and the “deoxyhypusination signal, Mean (quantification from Figure 3E)” value (“deoxyhypusination signal, Mean” for short) ([5]; pH: 8.0, spermidine 1 µM as substrate) was 0,00. For the same compound, the “deoxyhypusination signal, Mean” value ([5]; pH: 8.0, spermidine 10 µM as substrate) was 50,47, the “deoxyhypusination signal, Mean” value ([5]; pH: 8.0, spermidine 100 µM as substrate) was 87,29 and the “deoxyhypusination signal, Mean” value ([5]; pH: 8.0, spermidine 1000 µM as substrate) was 98,05. The “deoxyhypusination signal, Mean” value ([5]; pH: 8.0, spermidine 10000 µM as substrate) was 100,00, the “deoxyhypusination signal, Mean” value ([5]; pH: 9.0, spermidine 1 µM as substrate) was 0,00 and the “deoxyhypusination signal, Mean” value ([5]; pH: 9.0, spermidine 10 µM as substrate) was 51,14. For the same compound, the “deoxyhypusination signal, Mean” value ([5]; pH: 9.0, spermidine 100 µM as substrate) was 85,89, the Km ([6]; ref 23) was 4 µM and the Km ([6]; ref 24) was 7.6 µM.

— PMC11819603, “Development of a reliable, sensitive, and convenient assay for the discovery of new eIF5A hypusination inhibitors” (PLOS ONE, 2025)
